Source: patent publication US20110144014A1, “CYTOKINE RECEPTOR MODULATORS AND USES THEREOF” (CENTRE HOSPITALIER UNIVERSITAIRE SAINTE-JUSTINE, priority 2005, published 2011)
pIC50: −log10 of the molar value. Marks after values point to notes of the source that are not given here. Where a SMILES comes first, the peptide text is derived from it. [ ]: non-standard residue; d: D form.

Experiments:
[1] = tested on: TNBS-induced colon inflammation; experiment: TNBS rat model of inflammatory bowel disease; assay type: in vivo
Method: Colon inflammation was induced by intra-rectal/colon administration of the hapten trinitrobenzene sulphonic acid (TNBS) on male Sprague-Dawley rats (175-200 g) (Bouma, Nature Rev, 2003; Morris, Gastroenterology, 1989). Animals were anesthetized with isoflurane and TNBS dissolved in 50% ethanol (vol/vol). 120 mg/ml (TNBS) was administered into the colon (total volume of 0.25 ml per rat) using a polyethylene tube (PE50). The cannula was inserted at 8 cm from the anus and kept in place for at least 15 minutes after TNBS administration in order to prevent expulsion of the solution. Two hours prior to TNBS administration, the API-101 derivative API-101.10 (1.1 mg/kg) or 0.9% saline was administered intravenously via the caudal vein (total volume of 0.3 ml). […] A third group (control) was not injected with TNBS. Six days after administration of TNBS, rats were killed by CO2 inhalation. Day 6 was chosen as an endpoint because by day 7 spontaneous tissue regeneration begins and this can mask the therapeutic effect of the tested peptide or peptide derivative. Colon was removed and examined macroscopically (adhesions, ulcerations, discoloration and bleeding) and histologically (neutrophil infiltration, epithelial injury, crypt distortion and ulcerations) (Anthony et al., Int. J. Exp. Path. 76:215-224, 1995; Padol et al., Eur. J. of Gastroenterol. Hepatol. 12:257-265, 2000; Dieleman et al., […], 1997; Torres et al., Digestive Diseases and Sciences 44:2523-2529, 1999). Two animals per group were studied.
Histological transversal sections were cut at 4-6 cm from the proximal anal region and colored with the hematoxylin/eosin method. The TNBS model of inflammatory bowel disease reproduces the inflammatory characteristics and tissue injuries of Crohn's disease (e.g., in humans). Morphologically, the colon of the animals injected with TNBS presented thickening, edema, and discoloration of the intestinal wall indicating a significant inflammation. […] Histological features consisted of neutrophil infiltration into the epithelial layer and crypts, epithelial lining injury as well as the loss of crypts. […] The organization and integrity of the crypts in the API-101.10-treated colon is conserved even if there is still some inflammation (half the dose of API-101.10 was used as compared to the macroscopic analysis experiment).
Colon inflammation was induced by intra-rectal/colon administration of the hapten trinitrobenzene sulphonic acid (TNBS) as described above. Two hours prior to TNBS administration, peptides, peptidomimetics or 0.9% saline were administered intravenously (iv) via the caudal vein (various concentrations of mg/kg/d) (total volume of 0.3 ml). […] A third group (control) was not injected with TNBS. For intermittent administration, fifteen minutes after TNBS administration, 101.10 (0.25-1 mg/kg), 101.107 (0.2 mg/kg), 101.113 (0.05-1 mg/kg) were administered by intermittent intraperitoneal injection (ip). Also, these IL-1R antagonists were given twice a day (BID); Remicade® (anti-TNFα) (10 mg/kg) and dexamethasone (0.75 mg/kg) were administered intraperitoneally but only once a day (qd). The intrarectal administration (ir) of 101.10, 101.113 (1 and 2.5 mg/kg), and 5-ASA (50 mg/kg) was done one hour after TNBS administration, and twice a day, except for 5-ASA which is once a day. Finally, 101.10 (1-5 mg/kg) was also administered orally by gavage (po), twice a day. Forty-eight hours after administration of TNBS, rats were killed by CO2 inhalation. The colon was removed and assessed macroscopically (adhesions, ulcerations, discoloration and bleeding) and histologically (neutrophil infiltration, epithelial injury, crypt distortion and ulcerations). One to seven animals per group were studied, according to treatments. Myeloperoxidase (MPO) activity was measured on tissue lysates.

IL-1R/IL-1RacP = experiment: IL-1-induced PGE2 synthesis in endothelial cells; assay type: cell-based, porcine
Method: Efficiencies and inhibitory activities of the mutated peptides were determined by measuring the inhibition of IL-1-induced PGE2 synthesis. […] All peptides were tested at concentration 10^−6M.
The arginine of API-101.10 (SEQ ID NO: 10) was replaced by citrulline—to change from a guanidine to a urea group near the N-terminal. Other mutations (e.g. E to Q in API-101.102 and API-101.103) and a truncated peptide at the C-terminal (API-101.108) were also performed to improve the potency and the efficacy of the peptides. Measurement of PGE2 was performed with piglet brain microvessel endothelial cells and WI-38 human fibroblasts. Some of the mutations were advantageous and gave major increases in potency.
IL-1-induced PGE2 synthesis assay on endothelial cells was used as a screening assay for the peptidomimetics.

[2] = continuous infusion (ip), 0.25 mg/kg/d
[3] = continuous infusion (ip), 0.75 mg/kg/d
[4] = continuous infusion (ip), 2.2 mg/kg/d
[5] = continuous infusion (ip), 4.0 mg/kg/d
[6] = intermittent injection (ip), 0.25-BID mg/kg/d
[7] = intermittent injection (ip), 0.50-BID mg/kg/d
[8] = intermittent injection (ip), 1.0-BID mg/kg/d
[9] = intermittent injection (ip), 1.0-BID mg/kg/d, 12 h after TNBS
[10] = intermittent injection (ip), 1.0-qd mg/kg/d
[11] = intrarectal administration, 2.5-BID mg/kg/d
[12] = intrarectal administration, + PEG-400, 1.0-BID mg/kg/d
[13] = intrarectal administration, + PEG-400, 2.5-BID mg/kg/d
[14] = oral administration, 5.0-BID mg/kg/d
[15] = oral administration, + PEG-400, 1.0-BID mg/kg/d
[16] = oral administration, + PEG-400, 2.5-BID mg/kg/d
[17] = oral administration, + PEG-400, 5.0-BID mg/kg/d

Q: Which TNBS-induced colon damage ([1]; 1.1 mg/kg iv 2 h before TNBS, then 2.2 mg/kg continuous ip infusion, day 6) does the source give for `CC(C)C[C@@H](NC(=O)[C@@H](CCC(=O)O)NC(=O)[C@H](NC(=O)[C@H](NC(=O)[C@@H](Cc1ccc(O)cc1)NC(=O)[C@H](N)CCCNC(=N)N)[C@H](C)O)C(C)C)C(=O)N[C@H](C)C(N)=O` [API-101.10, RYTVELA] (H-[dR][dY][dT][dV][dE][dL][dA]-NH2; N-terminus and C-terminus assumed) here?
A: prevented TNBS-induced colon damage

Q: And the “Histologic evaluation (median score)” value [1, 2]?
A: 2 (Small ulcer (<5 crypts))

Q: And the “MPO (% of TNBS + Saline)” value [1, 2]?
A: 34 % of TNBS + Saline

Q: And the “Histologic evaluation (median score)” value [1, 3]?
A: 4.4 median score

Q: And the “MPO (% of TNBS + Saline)” value [1, 3]?
A: 54 % of TNBS + Saline

Q: What about the “Histologic evaluation (median score)” value [1, 4] of the same molecule?
A: 2 (Small ulcer (<5 crypts))

Q: And the “MPO (% of TNBS + Saline)” value [1, 4]?
A: 46 ± 22 % of TNBS + Saline

Q: And the “Histologic evaluation (median score)” value [1, 5]?
A: 2 (Small ulcer (<5 crypts))

Q: And the “MPO (% of TNBS + Saline)” value [1, 5]?
A: 82 % of TNBS + Saline

Q: And the “inflammatory features and MPO activity” value ([1]; gavage twice a day, 5.0 mg/kg/d)?
A: substantially reduces

Q: And the “Histologic evaluation (median score)” value [1, 6]?
A: 2.25 median score

Q: And the “MPO (% of TNBS + Saline)” value [1, 6]?
A: 85 % of TNBS + Saline

Q: And the “Macroscopic evaluation (median score)” value [1, 6]?
A: 0.87 median score

Q: What about the “Histologic evaluation (median score)” value [1, 7] of the same molecule?
A: 3 (Medium ulcer (5-10 crypts))

Q: What about the “MPO (% of TNBS + Saline)” value [1, 7] of the same molecule?
A: 126 % of TNBS + Saline

Q: What about the “Macroscopic evaluation (median score)” value [1, 7] of the same molecule?
A: 0.87 median score

Q: What about the “Histologic evaluation (median score)” value [1, 8] of the same molecule?
A: 1.25 median score

Q: What about the “MPO (% of TNBS + Saline)” value [1, 8] of the same molecule?
A: 47 ± 9 % of TNBS + Saline

Q: What about the “Macroscopic evaluation (median score)” value [1, 8] of the same molecule?
A: 0.8 ± 0.1 median score

Q: And the “Histologic evaluation (median score)” value [1, 9]?
A: 2.6 median score

Q: And the “Macroscopic evaluation (median score)” value [1, 9]?
A: 1.1 ± 0.1 median score

Q: And the “MPO (% of TNBS + Saline)” value ([1]; intermittent injection (ip), 1.0-BID mg/kg/d, 12 h after TNBS, leucocyte infiltration has already occurred)?
A: 123 ± 18 % of TNBS + Saline

Q: What about the “Histologic evaluation (median score)” value [1, 10] of the same molecule?
A: 5 (Marked denudation (>20 crypts))

Q: And the “MPO (% of TNBS + Saline)” value [1, 10]?
A: 67 % of TNBS + Saline

Q: And the “Macroscopic evaluation (median score)” value [1, 10]?
A: 1.63 median score

Q: And the “MPO activity, macroscopic and histologic score” value ([1]; intraperitoneal osmotic pumps (continuous infusion), superior or equivalent to Kineret)?
A: marked reductions

Q: What about the “MPO (% of TNBS + Saline)” value [1, 11] of the same molecule?
A: 111 ± 25 % of TNBS + Saline

Q: And the “Macroscopic evaluation (median score)” value [1, 11]?
A: 1.4 ± 0.1 median score

Q: And the “Histologic evaluation (median score)” value [1, 12]?
A: 3.2 median score

Q: And the “MPO (% of TNBS + Saline)” value [1, 12]?
A: 110 % of TNBS + Saline

Q: And the “Macroscopic evaluation (median score)” value [1, 12]?
A: 1.25t median score

Q: What about the “Histologic evaluation (median score)” value [1, 13] of the same molecule?
A: 3.9 median score

Q: What about the “MPO (% of TNBS + Saline)” value [1, 13] of the same molecule?
A: 59 % of TNBS + Saline

Q: And the “Macroscopic evaluation (median score)” value [1, 13]?
A: 1.17^† median score

Q: What about the “reduction of MPO activity” value ([1]; intrarectally, 2.5 mg/kg/d) of the same molecule?
A: 50%

Q: And the “Histologic evaluation (median score)” value [1, 14]?
A: 2.25 median score

Q: And the “MPO (% of TNBS + Saline)” value [1, 14]?
A: 65 % of TNBS + Saline

Q: And the “Macroscopic evaluation (median score)” value [1, 14]?
A: 0.75 median score

Q: And the “Histologic evaluation (median score)” value [1, 15]?
A: 3.5 median score

Q: And the “MPO (% of TNBS + Saline)” value [1, 15]?
A: 167 % of TNBS + Saline

Q: And the “Macroscopic evaluation (median score)” value [1, 15]?
A: 1.0 median score

Q: And the “Histologic evaluation (median score)” value [1, 16]?
A: 3.5 median score

Q: What about the “MPO (% of TNBS + Saline)” value [1, 16] of the same molecule?
A: 176 % of TNBS + Saline

Q: And the “Macroscopic evaluation (median score)” value [1, 16]?
A: 1.25 median score

Q: What about the “Histologic evaluation (median score)” value [1, 17] of the same molecule?
A: 3.6 median score

Q: What about the “MPO (% of TNBS + Saline)” value [1, 17] of the same molecule?
A: 57 % of TNBS + Saline

Q: What about the “Macroscopic evaluation (median score)” value [1, 17] of the same molecule?
A: 1.5 median score

Q: What about the “efficacy of intermittent administration” value ([1]; twice a day, surpasses dexamethasone, Remicade and 5-ASA) of the same molecule?
A: dose-dependent efficacy

Q: What about the pIC50 (IL-1R/IL-1RacP) of the same molecule?
A: 8.92
